These results are taken from ChEMBL document CHEMBL4800731, “Data for DCP probe JNJ-65355394” (2021).

The source made the active and inactive calls. The rule behind the calls is not given here.

By inhibition is commonly meant the change of the read-out against control, counted positive when it falls. Broadly, the IC50 is the concentration that gives 50% inhibition.

Experiment [1] deals with Histamine H4 receptor (Homo sapiens) (UniProt Q9H3N8). Conditions: Compound concentration 10.0 uM.
For experiment [2], the target named is Sigma non-opioid intracellular receptor 1 (Homo sapiens, UniProt Q99720). The experiment in a line: GPCRScan assay: inhibition of Sigma 1. Also on record: radioligand conc. used [nm] 4.0 – 5.0, parental cells HEKT.
Sigma non-opioid intracellular receptor 1, sequence (Q99720 whole entry): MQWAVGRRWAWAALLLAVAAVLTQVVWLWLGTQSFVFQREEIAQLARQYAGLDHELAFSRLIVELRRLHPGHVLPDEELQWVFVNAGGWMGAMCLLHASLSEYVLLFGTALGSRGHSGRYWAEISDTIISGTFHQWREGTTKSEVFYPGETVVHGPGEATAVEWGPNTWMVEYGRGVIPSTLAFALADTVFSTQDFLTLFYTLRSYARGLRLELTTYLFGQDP
The target in experiment [3] is 5-hydroxytryptamine receptor 1E (Homo sapiens) (UniProt P28566). Conditions: Compound concentration 10.0 uM.
5-hydroxytryptamine receptor 1E (Homo sapiens), sequence (P28566 whole entry): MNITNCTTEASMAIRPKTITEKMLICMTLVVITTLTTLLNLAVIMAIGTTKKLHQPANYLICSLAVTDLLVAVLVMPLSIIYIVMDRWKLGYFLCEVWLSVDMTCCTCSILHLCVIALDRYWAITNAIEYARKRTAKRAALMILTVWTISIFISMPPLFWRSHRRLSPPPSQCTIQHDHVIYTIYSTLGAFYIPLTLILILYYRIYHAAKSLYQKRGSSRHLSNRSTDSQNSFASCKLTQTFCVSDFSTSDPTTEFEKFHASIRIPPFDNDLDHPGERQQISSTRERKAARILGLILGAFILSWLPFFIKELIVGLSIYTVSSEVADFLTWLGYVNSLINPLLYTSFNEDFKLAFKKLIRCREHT
Experiment [4] deals with T1, Muscarinic acetylcholine receptor M1 (Homo sapiens) (UniProt P11229).
T1 sequence (whole entry): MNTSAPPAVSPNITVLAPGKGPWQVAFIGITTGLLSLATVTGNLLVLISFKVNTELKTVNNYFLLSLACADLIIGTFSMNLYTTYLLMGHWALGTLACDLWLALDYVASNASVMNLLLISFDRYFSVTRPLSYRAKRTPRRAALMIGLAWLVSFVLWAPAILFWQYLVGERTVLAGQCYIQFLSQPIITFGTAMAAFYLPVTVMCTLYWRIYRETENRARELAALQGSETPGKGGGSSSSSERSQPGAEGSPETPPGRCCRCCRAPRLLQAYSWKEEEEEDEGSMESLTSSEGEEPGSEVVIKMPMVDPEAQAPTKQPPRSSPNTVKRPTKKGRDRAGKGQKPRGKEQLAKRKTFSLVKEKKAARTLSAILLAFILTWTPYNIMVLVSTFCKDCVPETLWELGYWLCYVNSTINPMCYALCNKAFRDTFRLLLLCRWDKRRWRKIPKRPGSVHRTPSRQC
Put plainly: hM1 Cerep panel.

Experiment [5] addresses Alpha-2A adrenergic receptor (Rattus norvegicus) (UniProt P22909). The experiment in a line: rAa2 Cerep panel.
Experiment [6] addresses Kappa-type opioid receptor (Rattus norvegicus) (UniProt P34975). Put plainly: rOP2 Cerep panel.
In a further experiment the target is T2, Protein O-GlcNAcase (Homo sapiens, UniProt O60502).
T2 sequence (O60502 whole entry): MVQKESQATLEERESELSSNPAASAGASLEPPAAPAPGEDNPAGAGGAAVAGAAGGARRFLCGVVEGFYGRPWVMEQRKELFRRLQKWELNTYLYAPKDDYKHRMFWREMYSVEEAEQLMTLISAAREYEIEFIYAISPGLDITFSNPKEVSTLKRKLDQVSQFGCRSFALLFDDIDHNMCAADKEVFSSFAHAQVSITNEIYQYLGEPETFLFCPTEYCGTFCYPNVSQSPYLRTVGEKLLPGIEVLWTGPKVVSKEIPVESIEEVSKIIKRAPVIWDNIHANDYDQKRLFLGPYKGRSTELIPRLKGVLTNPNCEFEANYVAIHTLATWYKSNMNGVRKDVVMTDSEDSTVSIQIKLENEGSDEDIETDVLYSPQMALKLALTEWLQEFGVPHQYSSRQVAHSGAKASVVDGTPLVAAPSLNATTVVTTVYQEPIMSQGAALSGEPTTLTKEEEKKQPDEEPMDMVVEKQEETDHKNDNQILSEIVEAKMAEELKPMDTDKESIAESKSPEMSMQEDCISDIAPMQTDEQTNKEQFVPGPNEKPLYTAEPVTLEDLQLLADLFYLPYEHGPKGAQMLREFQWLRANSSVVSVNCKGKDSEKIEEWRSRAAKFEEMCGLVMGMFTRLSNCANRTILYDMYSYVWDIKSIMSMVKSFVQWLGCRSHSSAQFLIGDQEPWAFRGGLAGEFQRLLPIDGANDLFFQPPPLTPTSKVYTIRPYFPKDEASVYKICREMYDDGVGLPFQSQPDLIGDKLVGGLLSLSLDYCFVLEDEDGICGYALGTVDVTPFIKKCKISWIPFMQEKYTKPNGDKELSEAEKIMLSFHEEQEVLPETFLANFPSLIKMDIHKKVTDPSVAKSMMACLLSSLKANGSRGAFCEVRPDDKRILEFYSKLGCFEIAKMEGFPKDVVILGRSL
The experiment in a line: Cell-based OGA assay.

For experiment [7], the target named is Adenosine receptor A1 (Homo sapiens) (UniProt P30542). The experiment in a line: hA1 Cerep panel.
Adenosine receptor A1 (Homo sapiens), sequence (P30542 whole entry): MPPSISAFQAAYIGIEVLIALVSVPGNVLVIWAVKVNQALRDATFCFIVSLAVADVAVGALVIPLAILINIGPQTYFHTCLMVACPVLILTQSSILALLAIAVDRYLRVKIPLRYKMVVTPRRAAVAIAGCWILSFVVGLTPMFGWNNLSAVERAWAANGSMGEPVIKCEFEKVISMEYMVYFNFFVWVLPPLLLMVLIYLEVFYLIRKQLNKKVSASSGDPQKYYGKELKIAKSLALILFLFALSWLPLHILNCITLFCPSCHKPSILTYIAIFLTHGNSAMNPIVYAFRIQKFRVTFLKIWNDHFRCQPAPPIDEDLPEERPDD
For experiment [8], the target named is Type-1 angiotensin II receptor (Homo sapiens) (UniProt P30556). The experiment in a line: hAT1 Cerep panel.
Type-1 angiotensin II receptor (Homo sapiens), sequence (P30556 whole entry): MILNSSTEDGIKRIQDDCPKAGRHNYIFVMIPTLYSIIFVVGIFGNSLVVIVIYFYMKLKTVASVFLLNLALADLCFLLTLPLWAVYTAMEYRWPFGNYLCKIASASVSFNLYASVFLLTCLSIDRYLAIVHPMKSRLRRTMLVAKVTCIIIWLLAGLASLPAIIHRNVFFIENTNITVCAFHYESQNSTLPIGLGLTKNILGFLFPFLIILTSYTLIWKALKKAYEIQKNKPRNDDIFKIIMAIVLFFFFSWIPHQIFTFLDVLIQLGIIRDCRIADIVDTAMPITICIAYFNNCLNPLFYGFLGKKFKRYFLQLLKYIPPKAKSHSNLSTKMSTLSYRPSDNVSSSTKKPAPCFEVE
Experiment [9] concerns the target Kappa-type opioid receptor (Homo sapiens, UniProt P41145). The experiment in a line: GPCRScan assay: inhibition of KOR. On the set-up: radioligand conc. used [nm] 0.6 – 1.2, parental cells stable HEK.
The target in experiment [10] is Muscarinic acetylcholine receptor M3 (Homo sapiens) (UniProt P20309). The experiment in a line: hM3 Cerep panel.
Experiment [11] concerns the target Somatostatin receptor (Mus musculus) (UniProt P30935+O08858+P30875+P30873+P49660). Put plainly: mSST Cerep panel. The experiment is classed as protein assay.
For experiment [12], the target named is T3, Alpha-1B adrenergic receptor (Homo sapiens) (UniProt P35368).
T3 sequence (whole entry): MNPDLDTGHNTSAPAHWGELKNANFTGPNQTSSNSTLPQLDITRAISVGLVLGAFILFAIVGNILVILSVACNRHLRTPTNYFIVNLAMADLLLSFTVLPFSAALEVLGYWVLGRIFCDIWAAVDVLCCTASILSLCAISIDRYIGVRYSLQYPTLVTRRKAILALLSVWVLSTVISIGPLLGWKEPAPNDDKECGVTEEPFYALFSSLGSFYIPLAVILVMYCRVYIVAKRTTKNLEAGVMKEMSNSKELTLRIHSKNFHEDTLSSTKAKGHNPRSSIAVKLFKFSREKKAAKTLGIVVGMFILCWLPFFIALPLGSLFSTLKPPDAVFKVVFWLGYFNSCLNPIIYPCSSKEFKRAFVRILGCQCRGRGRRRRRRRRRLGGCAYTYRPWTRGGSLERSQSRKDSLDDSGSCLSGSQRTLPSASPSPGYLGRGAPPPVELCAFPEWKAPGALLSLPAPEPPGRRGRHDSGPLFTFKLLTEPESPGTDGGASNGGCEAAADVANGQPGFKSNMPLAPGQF
Put plainly: hAb1 Cerep panel.

The target in experiment [13] is 5-hydroxytryptamine receptor 2A (Homo sapiens) (UniProt P28223). Put plainly: h5HT2A Cerep panel.
5-hydroxytryptamine receptor 2A (Homo sapiens), sequence (P28223 whole entry): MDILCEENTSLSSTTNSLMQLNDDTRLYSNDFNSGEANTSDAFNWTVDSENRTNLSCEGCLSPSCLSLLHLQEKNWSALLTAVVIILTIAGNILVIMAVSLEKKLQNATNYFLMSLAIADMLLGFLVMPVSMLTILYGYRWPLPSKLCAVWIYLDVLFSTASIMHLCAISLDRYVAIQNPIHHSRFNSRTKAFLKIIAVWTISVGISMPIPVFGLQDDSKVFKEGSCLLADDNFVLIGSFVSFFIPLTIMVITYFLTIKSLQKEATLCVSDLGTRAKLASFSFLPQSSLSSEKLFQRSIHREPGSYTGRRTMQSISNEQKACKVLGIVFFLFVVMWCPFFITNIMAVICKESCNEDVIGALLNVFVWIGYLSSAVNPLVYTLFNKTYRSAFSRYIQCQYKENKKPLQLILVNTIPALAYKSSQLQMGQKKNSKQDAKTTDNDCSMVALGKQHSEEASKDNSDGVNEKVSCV
The nature of experiment [14]: cML1 Cerep panel.
In experiment [15] the target is T4, 5-hydroxytryptamine receptor 3A (Homo sapiens) (UniProt P46098).
T4 sequence (whole entry): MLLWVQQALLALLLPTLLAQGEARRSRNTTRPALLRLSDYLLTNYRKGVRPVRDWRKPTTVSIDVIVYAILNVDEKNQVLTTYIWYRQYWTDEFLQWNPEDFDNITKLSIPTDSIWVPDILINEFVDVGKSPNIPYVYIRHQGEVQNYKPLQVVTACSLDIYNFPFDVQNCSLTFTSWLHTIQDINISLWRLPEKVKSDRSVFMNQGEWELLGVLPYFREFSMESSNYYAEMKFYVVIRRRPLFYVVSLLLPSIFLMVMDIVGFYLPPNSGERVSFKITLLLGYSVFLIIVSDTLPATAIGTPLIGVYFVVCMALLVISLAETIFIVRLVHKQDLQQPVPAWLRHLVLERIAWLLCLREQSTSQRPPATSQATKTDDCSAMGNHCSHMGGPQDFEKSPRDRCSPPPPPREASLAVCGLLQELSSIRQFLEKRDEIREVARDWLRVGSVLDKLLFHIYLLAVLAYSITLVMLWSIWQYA
The experiment in a line: h5HT3 Cerep panel.

Kappa-type opioid receptor, sequence (P41145 whole entry): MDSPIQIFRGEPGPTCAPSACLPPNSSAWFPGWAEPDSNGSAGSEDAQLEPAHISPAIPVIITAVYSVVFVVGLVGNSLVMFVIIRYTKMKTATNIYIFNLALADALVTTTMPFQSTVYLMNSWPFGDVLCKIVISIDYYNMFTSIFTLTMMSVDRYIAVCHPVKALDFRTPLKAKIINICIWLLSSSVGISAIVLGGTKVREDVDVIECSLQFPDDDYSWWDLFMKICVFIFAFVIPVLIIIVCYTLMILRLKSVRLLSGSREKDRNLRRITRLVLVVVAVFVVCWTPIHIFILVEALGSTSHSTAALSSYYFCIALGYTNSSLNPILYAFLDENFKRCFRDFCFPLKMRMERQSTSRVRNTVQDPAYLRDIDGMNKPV
Histamine H4 receptor (Homo sapiens), sequence (Q9H3N8 whole entry): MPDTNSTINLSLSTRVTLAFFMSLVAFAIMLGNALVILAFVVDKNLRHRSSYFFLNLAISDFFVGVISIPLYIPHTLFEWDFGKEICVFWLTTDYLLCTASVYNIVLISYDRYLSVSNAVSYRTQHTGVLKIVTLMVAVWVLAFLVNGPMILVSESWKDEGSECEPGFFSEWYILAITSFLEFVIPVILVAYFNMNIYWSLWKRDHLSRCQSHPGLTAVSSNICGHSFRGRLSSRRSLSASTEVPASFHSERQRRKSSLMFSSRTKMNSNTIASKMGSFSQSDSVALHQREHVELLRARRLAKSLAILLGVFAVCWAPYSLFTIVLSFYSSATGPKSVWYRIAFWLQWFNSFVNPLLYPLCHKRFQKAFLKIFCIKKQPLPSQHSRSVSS
Alpha-2A adrenergic receptor (Rattus norvegicus), sequence (P22909 whole entry): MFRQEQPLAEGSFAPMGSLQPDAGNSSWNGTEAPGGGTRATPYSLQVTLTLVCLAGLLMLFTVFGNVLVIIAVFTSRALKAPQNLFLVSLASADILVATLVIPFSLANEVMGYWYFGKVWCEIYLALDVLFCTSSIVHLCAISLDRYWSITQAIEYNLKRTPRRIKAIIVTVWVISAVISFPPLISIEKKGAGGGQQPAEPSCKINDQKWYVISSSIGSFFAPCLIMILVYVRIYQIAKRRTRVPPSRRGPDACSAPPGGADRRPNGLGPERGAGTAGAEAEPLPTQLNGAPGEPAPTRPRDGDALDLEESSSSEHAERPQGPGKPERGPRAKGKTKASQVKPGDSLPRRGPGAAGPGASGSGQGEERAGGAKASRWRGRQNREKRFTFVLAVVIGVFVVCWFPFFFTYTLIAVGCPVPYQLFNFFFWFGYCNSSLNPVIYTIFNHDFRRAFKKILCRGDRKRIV
Somatostatin receptor (Mus musculus), sequence (P30935 whole entry): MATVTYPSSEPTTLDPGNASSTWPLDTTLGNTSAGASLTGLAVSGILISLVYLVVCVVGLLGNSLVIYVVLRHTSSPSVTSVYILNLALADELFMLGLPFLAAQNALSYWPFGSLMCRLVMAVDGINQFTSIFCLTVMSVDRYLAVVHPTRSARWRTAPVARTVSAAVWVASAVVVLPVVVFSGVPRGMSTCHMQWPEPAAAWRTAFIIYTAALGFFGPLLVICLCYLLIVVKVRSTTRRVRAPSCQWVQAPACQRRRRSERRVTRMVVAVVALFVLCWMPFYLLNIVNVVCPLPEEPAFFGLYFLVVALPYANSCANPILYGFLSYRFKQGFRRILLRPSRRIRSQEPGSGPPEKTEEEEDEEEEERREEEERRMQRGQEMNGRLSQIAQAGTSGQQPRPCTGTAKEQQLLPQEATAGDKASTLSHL
Somatostatin receptor (Mus musculus), sequence (O08858 whole entry): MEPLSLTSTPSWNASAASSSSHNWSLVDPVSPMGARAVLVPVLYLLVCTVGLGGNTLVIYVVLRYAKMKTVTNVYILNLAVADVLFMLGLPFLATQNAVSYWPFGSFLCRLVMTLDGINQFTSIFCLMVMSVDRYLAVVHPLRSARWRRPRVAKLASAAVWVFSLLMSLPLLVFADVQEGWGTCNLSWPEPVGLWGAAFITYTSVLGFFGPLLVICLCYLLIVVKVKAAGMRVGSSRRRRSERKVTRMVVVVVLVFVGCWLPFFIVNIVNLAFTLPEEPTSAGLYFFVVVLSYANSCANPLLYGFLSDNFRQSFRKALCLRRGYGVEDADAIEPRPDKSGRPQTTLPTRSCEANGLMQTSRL
Somatostatin receptor (Mus musculus), sequence (P30875 whole entry): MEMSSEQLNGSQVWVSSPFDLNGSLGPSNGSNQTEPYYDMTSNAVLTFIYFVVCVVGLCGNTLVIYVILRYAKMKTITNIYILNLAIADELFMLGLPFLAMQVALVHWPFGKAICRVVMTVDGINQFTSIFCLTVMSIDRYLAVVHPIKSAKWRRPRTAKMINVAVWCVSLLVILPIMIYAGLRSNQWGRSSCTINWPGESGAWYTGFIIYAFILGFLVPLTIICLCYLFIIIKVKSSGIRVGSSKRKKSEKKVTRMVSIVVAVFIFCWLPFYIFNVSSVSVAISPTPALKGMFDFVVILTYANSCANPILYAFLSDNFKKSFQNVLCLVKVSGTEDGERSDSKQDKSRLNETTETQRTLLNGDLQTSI
Somatostatin receptor (Mus musculus), sequence (P30873 whole entry): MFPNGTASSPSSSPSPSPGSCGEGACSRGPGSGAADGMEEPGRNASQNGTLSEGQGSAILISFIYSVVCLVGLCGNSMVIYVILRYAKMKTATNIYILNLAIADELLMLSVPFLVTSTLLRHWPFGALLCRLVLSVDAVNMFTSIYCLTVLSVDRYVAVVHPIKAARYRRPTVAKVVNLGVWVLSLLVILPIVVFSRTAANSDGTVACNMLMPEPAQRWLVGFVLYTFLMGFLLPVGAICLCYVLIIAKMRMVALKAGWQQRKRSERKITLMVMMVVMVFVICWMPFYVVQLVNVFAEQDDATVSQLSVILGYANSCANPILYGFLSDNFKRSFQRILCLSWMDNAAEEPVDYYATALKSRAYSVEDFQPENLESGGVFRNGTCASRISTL
Somatostatin receptor (Mus musculus), sequence (P49660 with tags, fused parts or gaps): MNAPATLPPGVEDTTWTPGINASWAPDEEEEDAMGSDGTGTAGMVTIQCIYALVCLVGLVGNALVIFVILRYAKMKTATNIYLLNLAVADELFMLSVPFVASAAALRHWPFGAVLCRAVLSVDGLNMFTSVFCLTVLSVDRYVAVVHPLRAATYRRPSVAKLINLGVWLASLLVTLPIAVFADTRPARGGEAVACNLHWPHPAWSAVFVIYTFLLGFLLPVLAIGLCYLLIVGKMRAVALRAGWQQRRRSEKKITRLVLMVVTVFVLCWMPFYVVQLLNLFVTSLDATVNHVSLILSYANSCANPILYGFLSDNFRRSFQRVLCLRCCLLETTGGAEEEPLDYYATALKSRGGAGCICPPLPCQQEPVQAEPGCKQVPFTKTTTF

As to `CC(=O)Nc1nc(CN2CCC[C@H](Cc3cc(C)nc(C)c3)C2)cs1` [JNJ-73924149], the inhibition in experiment [1] is -0.6%; in experiment [3], 0.93%. The Ki in [2] was found to be 63.3 nM.

On to `CC(=O)Nc1ncc(CN2CCC[C@H](Cc3cc(C)nc(C)c3)C2)s1` [JNJ-65355394], for which the effect was 32.5% in experiment [4]; 69% in experiment [5]; 77.8% in experiment [6]; -13.2% in experiment [7]; -3.05% in [8]; 45.5% in experiment [10]. Further, the effect stood at 4.2% in experiment [11]; 11.2% in experiment [12]; 4.1% in experiment [13]; 11.5% in experiment [14]; 1.85% in [15]. Further, the IC50 at Protein O-GlcNAcase is 3.9 nM (active). The values for the Ki in experiment [9] (read-out: Ki) and in experiment [9] (read-out: pKi (converted)) were 773 nM and 741 nM, respectively.
